{"source": "patent US20220152204A1", "about": "“PHOTOIMMUNOTHERAPY AND PHARMACEUTICAL AGENT USED THEREFOR” (SHIMADZU CORPORATION, priority 2019, published 2022)", "key": {"[1]": {"test_system": "Epidermal cancer cells (A431)", "experiment": "Observation under fluorescent microscope of A431 cells before and after 690 nm laser exposure", "format": "cell-based", "settings": "20 μg added, 10 minutes at 37° C., 690 nm laser at 50 J", "procedure": "Epidermal cancer cells (A431) were placed at 10,000 cells/mL into a 3.5 mm dish and incubated for 1 day. Subsequently, 20 μg of IF7C-IR700 or IR700 was added to the respective dish and incubation was performed for 10 minutes at 37° C.\nExposure to a 690 nm laser was performed at 50 J, and the A431 cells before and after exposure were observed under a fluorescent microscope (IX61 or IX81; Olympus America). […] From this, it can be inferred that IF7C-IR700 is internalized by cells and undergoes a reaction, causing the cells to shrink."}, "[2]": {"test_system": "xenograft model animals implanted with A431", "experiment": "Mouse experiment: fluorescent intensity monitoring of pharmaceutical agent accumulation in A431 xenograft model animals", "format": "in vivo", "settings": "A431 xenograft mice, 0.033 μmol, Pearl Imager, monitored up to 180 min", "procedure": "Five xenograft model animals implanted with A431 were treated with 0.033 μmol IF7C-IR700, and the fluorescent intensity of body surface, tumor and liver of the mice was monitored at 10 min intervals for up to 60 min and at 30 min intervals for up to 180 min with a Pearl Imager (LI-COR Bioscience) to check for accumulation of pharmaceutical agent. The fluorescent intensity over the tumor reached a maximum at 60 min, so exposure to therapeutic light was performed 60 min after pharmaceutical agent injection to carry out NIR-PIT with IF7C-IR700. For the PIT, exposure to NIR light was performed under conditions which enable cleavage of the IR700, at a wavelength of 680 nm to 690 nm and a dose of 10 J/cm^2."}}, "note": "Ends that are not written are not given here."}
{"substance": "IF7C-IR700: IF7-C peptide (IFLLWQRC, SEQ ID NO: 6) conjugated with IR700 maleimide via the cysteine SH residue (IFLLWQRC(IR700 maleimide))", "values": [{"measurement": "cell shrinkage observed under fluorescent microscope after exposure", "setting": "[1]", "value": "the cells had shrunk"}, {"measurement": "time at which fluorescent intensity over the tumor reached a maximum", "setting": "[2]", "value": 60, "unit": "min"}]}
